In US11434242B2, “Dopamine-b-hydroxylase inhibitors” (BIAL-PORTELA & Cª, S.A., priority 2017, dated 2022):

Target: T1, Dopamine beta hydroxylase (Homo sapiens, UniProt P09172)
T1 construct: 125 μl of plasma; tissue Instituto Português do Sangue Transplantação; host or cells: human plasma from healthy donors
T1 sequence (P09172 40-617 limits assumed): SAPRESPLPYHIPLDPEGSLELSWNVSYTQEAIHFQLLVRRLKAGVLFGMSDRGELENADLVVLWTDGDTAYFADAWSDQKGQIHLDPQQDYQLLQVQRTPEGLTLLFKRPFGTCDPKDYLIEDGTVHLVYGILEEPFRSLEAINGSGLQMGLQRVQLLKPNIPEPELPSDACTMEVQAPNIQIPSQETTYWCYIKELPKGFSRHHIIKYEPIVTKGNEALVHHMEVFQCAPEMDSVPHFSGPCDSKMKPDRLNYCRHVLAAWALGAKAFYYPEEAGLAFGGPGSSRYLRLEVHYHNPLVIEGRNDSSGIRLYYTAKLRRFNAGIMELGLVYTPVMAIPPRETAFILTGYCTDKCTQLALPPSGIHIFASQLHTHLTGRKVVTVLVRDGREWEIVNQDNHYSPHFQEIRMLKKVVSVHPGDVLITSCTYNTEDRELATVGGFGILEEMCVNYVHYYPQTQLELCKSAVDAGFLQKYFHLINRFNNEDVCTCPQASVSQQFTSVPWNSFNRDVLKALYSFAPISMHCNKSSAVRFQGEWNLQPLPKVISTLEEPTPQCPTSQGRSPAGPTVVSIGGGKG
Experiment: Dopamine beta hydroxylase activity in human plasma
Format: biochemical
Conditions: for Plasma (0.01 μM), activity in % of control: inhibitor 0.01 μM; for Plasma (0.1 μM), activity in % of control: inhibitor 0.1 μM; for Plasma (1 μM), activity in % of control: inhibitor 1 μM
Description: Furthermore, the ability of a compound to inhibit DβH activity may be assessed in human plasma using the following assay. […]. Dopamine beta hydroxylase activity in human plasma was measured by the method of Nagatsu and Udenfriend (Nagatsu, T. and Udenfriend, S. “Photometric assay of dopamine-μ-hydroxylase activity in human blood.” Clin. Chem. 18(9) 980-983, 1972) with minor modifications. Catalase, N-ethylmaleimide, tyramine, disodium fumarate, pargyline, sodium acetate, ascorbic acid, copper sulfate and octopamine were obtained from Sigma Chemical Co., St. Louis, Mo. 63178. Human plasma samples were obtained from healthy donors (Instituto Português do Sangue Transplantação, Centro Sangue Transplantação, Porto, Portugal). From date of collection, plasma was stored at −80° C. until use. Test compounds were initially prepared in dimethyl sulfoxide at a concentration of 10 mM and diluted in dimethyl sulfoxide to the required concentrations. Test compounds were further diluted in ultrapure water to a concentration 20-fold to that of the final concentration to be tested. Final concentrations of test compounds were 10, 100 and 1000 nM. The various reagents used to make up the incubation buffer were premixed and consisted of the following components: sodium acetate buffer (1 M, pH 5.0, 18 ml), sodium fumarate (0.2 M, 4.5 ml), ascorbic acid (0.2 M, 4.5 ml, freshly prepared), pargyline (20 mM, freshly prepared, 4.5 ml), N-ethylmaleimide (0.2 M, 4.5 ml), catalase (10 000 U/ml, 9 ml), copper sulfate (20 μM, 4.5 ml) and 4.5 ultrapure water. The standard incubation mixture (total volume, 950 μl) contained: 50 μL of compound or vehicle (dimethyl sulfoxide 2%); 700 μL of incubation buffer; 125 μl of plasma (or saline for blank reaction or standard curve); 75 μl of saline. The reaction mixture was placed in water bath, shaking at 37° C. and pre-incubated for 10 minutes. Tyramine (0.5 M) was added and incubation proceeded for 45 minutes. The reaction contents were exposed to air. A sample of enzyme preparation (with 125 μl of plasma) that had been added perchloric acid 2 M at the end of the pre-incubation period was used as blank. A blank for each of the tested compounds was used. For octopamine standard curve, perchloric acid 2 M was replaced by increasing concentrations of octopamine prepared in perchloric acid 2 M (0.5, 1, 2.5, 5, 7.5, 10, 15, 20 μg/ml, final concentration). The incubation was stopped by adding 200 μl of 2 M molar perchloric acid, and the mixture was centrifuged at 9000 g for 5 min. The supernatant fluid (800 μL) was transferred to a column (SPE cartridge ISOLUTE SCX-3, 100 mg) and centrifuged at 150 g for 2 min. The column was washed two more times with 0.5 ml of ultrapure water by centrifuging at 150 g for 2 min. The adsorbed octopamine was eluted twice with 0.3 ml of 4 M ammonium hydroxide by centrifuging at 150 g for 2 min. Octopamine in the eluate was then converted to p-hydroxybenzaldehyde by adding 200 μl of sodium periodate (2%) and incubating for 6 min. Excess periodate was than reduced by adding 200 μl of sodium metabisulfite (10%). Absorbance was measured at […] in a 96-well plate by use of a SpectraMAX plus 384 (Molecular Devices) with software SOFTmax® PRO Software 5.3 spectrophotometer. Absorbance was linear with octopamine concentration from 0.5 to 20 μg/ml. Dopamine beta hydroxylase activity is determined as nmol of octopamine formed/ml of plasma/hour and effect of compounds is presented as % control.
Results are reported in the table below as activity in % of control at the inhibitor concentration tested.

| Plasma (0.01 μM), activity in % of control | Plasma (0.1 μM), activity in % of control | Plasma (1 μM), activity in % of control | SMILES |
| --- | --- | --- | --- |
| 61.7 % of control | 15.7 % of control |  | Cn1c(CC(=O)N[C@@H]2CCOC2)c2n(c1=S)C[C@@]1(c3cc(Br)ccc3F)C[C@@H]21 [Example 279, 2-((5aS,6aR)-5a-(5-bromo-2-fluorophenyl)-2-methyl-3-thioxo-2,3,5,5a,6,6a-hexahydrocyclopropa[3,4]pyrrolo[1,2-c]imidazol-1-yl)-N—((R)-tetrahydrofuran-3-yl)acetamide] |
|  | 69.2 % of control | 16.7 % of control | CS(=O)(=O)NC(=O)Cc1[nH]c(=S)n2c1C[C@@H](c1cc(Br)ccc1F)C2 [Example 21, (S)-2-(6-(5-bromo-2-fluorophenyl)-3-thioxo-2,5,6,7-tetrahydro-3H-pyrrolo[1,2-c]imidazol-1-yl)-N-(methylsulfonyl)acetamide] |
| 88.2 % of control | 29.5 % of control |  | O=S1(=O)CCC(NCCc2[nH]c(=S)n3c2C[C@H](c2c(F)ccc(Br)c2F)C3)CC1 [Example 178, (R)-6-(3-bromo-2,6-difluorophenyl)-1-(2-((1,1-dioxidotetrahydro-2H-thiopyran-4-yl)amino)ethyl)-2,5,6,7-tetrahydro-3H-pyrrolo[1,2-c]imidazole-3-thione] |
| 40.8 % of control | 10.9 % of control |  | Cn1c(CC(=O)NCC2CCOCC2)c2n(c1=S)C[C@H](c1c(F)ccc(Cl)c1F)C2 [Example 352, (S)-2-(6-(3-chloro-2,6-difluorophenyl)-2-methyl-3-thioxo-2,5,6,7-tetrahydro-3H-pyrrolo[1,2-c]imidazol-1-yl)-N-((tetrahydro-2H-pyran-4-yl)methyl)acetamide] |
| 49.6 % of control | 12.8 % of control |  | CN(C)C(=O)C1CCN(C(=O)Cc2c3n(c(=S)n2C)C[C@H](c2c(F)ccc(Br)c2F)C3)CC1 [Example 452, (S)-1-(2-(6-(3-bromo-2,6-difluorophenyl)-2-methyl-3-thioxo-2,5,6,7-tetrahydro-3H-pyrrolo[1,2-c]imidazol-1-yl)acetyl)-N,N-dimethylpiperidine-4-carboxamide] |
| 84.8 % of control | 41.9 % of control |  | CC(C)NC(=O)Cc1c2n(c(=S)n1C)C[C@@]1(c3cc(Br)ccc3F)C[C@@H]21 [Example 284, 2-((5aS,6aR)-5a-(5-bromo-2-fluorophenyl)-2-methyl-3-thioxo-2,3,5,5a,6,6a-hexahydrocyclopropa[3,4]pyrrolo[1,2-c]imidazol-1-yl)-N-isopropylacetamide] |
| 105.6 % of control | 83.7 % of control |  | Cn1c(CCC(=O)Nc2ccccn2)c2n(c1=S)C[C@@H](c1c(F)cccc1F)C2 [Example 269, (R)-3-(6-(2,6-difluorophenyl)-2-methyl-3-thioxo-2,5,6,7-tetrahydro-3H-pyrrolo[1,2-c]imidazol-1-yl)-N-(pyridin-2-yl)propanamide] |
|  | 30.8 % of control | 3.3 % of control | O=C(O)Cc1[nH]c(=S)n2c1C[C@@H](c1c(F)ccc(Br)c1F)C2 [Example 12, (S)-2-(6-(3-bromo-2,6-difluorophenyl)-3-thioxo-2,5,6,7-tetrahydro-3H-pyrrolo[1,2-c]imidazol-1-yl)acetic Acid] |
| 85.3 % of control | 56.0 % of control |  | Cn1c(CCC(=O)N2CCOCC2)c2n(c1=S)C[C@@H](c1c(F)ccc(F)c1F)C2 [Example 266, (R)-3-(2-methyl-3-thioxo-6-(2,3,6-trifluorophenyl)-2,5,6,7-tetrahydro-3H-pyrrolo[1,2-c]imidazol-1-yl)-1-morpholinopropan-1-one] |
| 18.5 % of control | 1.7 % of control |  | Cn1c(CC(=O)NC2CCOCC2)c2n(c1=S)C[C@@]1(c3c(F)ccc(Cl)c3F)C[C@@H]21 [Example 423, 2-((5aS,6aR)-5a-(3-chloro-2,6-difluorophenyl)-2-methyl-3-thioxo-2,3,5,5a,6,6a-hexahydrocyclopropa[3,4]pyrrolo[1,2-c]imidazol-1-yl)-N-(tetrahydro-2H-pyran-4-yl)acetamide] |
|  | 66.4 % of control | 10.9 % of control | CCOC(=O)Cc1[nH]c(=S)n2c1C[C@@H](c1cc(Br)ccc1F)C2 [Example 62, Ethyl (S)-2-(6-(5-bromo-2-fluorophenyl)-3-thioxo-2,5,6,7-tetrahydro-3H-pyrrolo[1,2-c]imidazol-1-yl)acetate] |
| 86.8 % of control | 20.2 % of control |  | Cn1c(CCO)c2n(c1=S)C[C@H](c1c(F)ccc(Br)c1F)C2 [Example 456, (S)-6-(3-bromo-2,6-difluorophenyl)-1-(2-hydroxyethyl)-2-methyl-2,5,6,7-tetrahydro-3H-pyrrolo[1,2-c]imidazole-3-thione] |
| 51.7 % of control | 8.9 % of control |  | Cn1c(CC(=O)N2CCC[C@H]2CO)c2n(c1=S)C[C@H](c1c(F)ccc(Br)c1F)C2 [Example 241, 2-((S)-6-(3-bromo-2,6-difluorophenyl)-2-methyl-3-thioxo-2,5,6,7-tetrahydro-3H-pyrrolo[1,2-c]imidazol-1-yl)-1-((S)-2-(hydroxymethyl)pyrrolidin-1-yl)ethan-1-one] |
|  | 74.9 % of control | 22.0 % of control | O=C(Cc1[nH]c(=S)n2c1C[C@@H](c1c(F)c(F)cc(F)c1F)C2)N1CCCC1 [Example 105, (S)-1-(pyrrolidin-1-yl)-2-(6-(2,3,5,6-tetrafluorophenyl)-3-thioxo-2,5,6,7-tetrahydro-3H-pyrrolo[1,2-c]imidazol-1-yl)ethan-1-one] |
| 103.3 % of control | 87.1 % of control |  | Cn1c(CCC(N)=O)c2n(c1=S)C[C@@H](c1c(F)cccc1F)C2 [Example 263, (R)-3-(6-(2,6-difluorophenyl)-2-methyl-3-thioxo-2,5,6,7-tetrahydro-3H-pyrrolo[1,2-c]imidazol-1-yl)propanamide] |

| SMILES | Plasma (0.01 μM), activity in % of control | Plasma (0.1 μM), activity in % of control | Plasma (1 μM), activity in % of control |
| --- | --- | --- | --- |
| N#CN/C(N)=N/Cc1[nH]c(=S)n2c1C[C@@H](c1c(F)ccc(Br)c1F)C2 [Example 224, 2-{[(6S)-6-(3-bromo-2,6-difluorophenyl)-3-thioxo-2,5,6,7-tetrahydro-3H-pyrrolo[1,2-c]imidazol-1-yl]methyl}-1-cyanoguanidine] | 22.6 % of control | 0.6 % of control |  |
